This note sets out measurements from PubChem BioAssay AID652152 (Johns Hopkins Ion Channel Center, 2013).

Active and inactive are the calls of the source. How the calls were made is not given here.

Chain of Potassium voltage-gated channel subfamily KQT member 2 (Rattus norvegicus) (O88943 whole entry, looked up): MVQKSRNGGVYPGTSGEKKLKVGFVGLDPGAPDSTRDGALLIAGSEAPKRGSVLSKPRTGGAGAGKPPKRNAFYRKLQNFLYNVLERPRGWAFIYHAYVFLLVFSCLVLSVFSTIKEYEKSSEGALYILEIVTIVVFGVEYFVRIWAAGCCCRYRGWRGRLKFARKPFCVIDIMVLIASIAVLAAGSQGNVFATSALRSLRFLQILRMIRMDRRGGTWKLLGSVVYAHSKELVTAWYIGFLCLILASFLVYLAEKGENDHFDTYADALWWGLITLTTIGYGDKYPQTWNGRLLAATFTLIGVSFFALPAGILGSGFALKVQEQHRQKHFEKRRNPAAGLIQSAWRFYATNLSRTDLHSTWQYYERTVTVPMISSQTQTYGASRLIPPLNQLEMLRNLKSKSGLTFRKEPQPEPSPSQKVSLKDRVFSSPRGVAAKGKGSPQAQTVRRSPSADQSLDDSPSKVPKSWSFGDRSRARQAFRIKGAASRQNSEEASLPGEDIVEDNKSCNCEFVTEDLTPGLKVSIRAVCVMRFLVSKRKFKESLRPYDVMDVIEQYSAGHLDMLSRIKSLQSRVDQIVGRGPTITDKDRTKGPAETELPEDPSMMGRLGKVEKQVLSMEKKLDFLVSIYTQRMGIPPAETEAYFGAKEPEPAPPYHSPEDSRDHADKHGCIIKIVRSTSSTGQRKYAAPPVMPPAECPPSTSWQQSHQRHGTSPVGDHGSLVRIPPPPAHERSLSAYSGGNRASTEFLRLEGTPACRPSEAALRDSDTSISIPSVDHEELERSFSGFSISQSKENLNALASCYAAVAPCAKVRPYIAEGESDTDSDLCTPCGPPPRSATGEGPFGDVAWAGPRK

One assay addresses Potassium voltage-gated channel subfamily KQT member 2 (Rattus norvegicus) (UniProt O88943). The assay is described as follows: KCNQ2 channel inhibitors, SAR follow-up, cell-based, automated electrophysiology (AID 652152). As to conditions: KCNQ2-expressing cells, automated patch-clamp current.
For the compound `CC[C@H](C(=O)Nc1ccc(N2CC[C@H](F)C2)cc1)c1ccccc1`, the IC50 was 0.12 µM.
Turning to `CC[C@H](C(=O)Nc1ccccc1N1CCN(c2ccncc2C)CC1)c1ccccc1`, the IC50 is 21.2 µM.
Same read-out and setting: in the case of `CC[C@H](C(=O)Nc1ccccc1N1CC[C@H](F)C1)c1ccccc1` it was 0.21 µM; in that of `CC[C@H](C(=O)Nc1ccccc1N1CCC(F)(F)CC1)c1ccccc1`, 2.8 µM; in that of `CC[C@H](C(=O)Nc1ccc(N2CCC(F)(F)CC2)cc1)c1ccccc1`, 0.75 µM.
Same read-out and setting: the same measure for `CC[C@H](C(=O)Nc1ccccc1N1CC(c2ccc(Cl)cc2)C1)c1ccccc1`: 0.89 µM.

The assay is the same for the next values; noted with them: KCNQ2-expressing cells, automated patch-clamp current; at 30 µM (top of the series).
As to `CC[C@H](C(=O)Nc1ccc(N2CCCC(F)C2)cc1)c1ccccc1` (stereo not given in full), the inhibition result was “inactive”.
Same read-out and setting: in the case of `CC[C@H](C(=O)Nc1ccc(N2CCN(c3ccncc3C)CC2)cc1)c1ccccc1` it was “inactive”.
Still for that read-out and setting: the same measure for `CC[C@H](C(=O)Nc1ccc(N2CC(c3ccc(Cl)cc3)C2)cc1)c1ccccc1`: “inactive”; for `CC[C@H](C(=O)Nc1ccc(N2CCN(c3cc(C(F)(F)F)ccn3)CC2)cc1)c1ccccc1`: “inactive”.

A word on the IC50: it is the concentration needed to halve the response being measured.
